Test results reported in ChEMBL document CHEMBL5604064, “ASAP - DENV-1 NS2B-NS3 protease fluorescence dose response” (2024).
pIC50: −log10 of the molar value.

What follows are molecules tested against T1, NS3 protease (dengue virus type 1, UniProt A0A0K0TQ28) (assay: Functional biochemical assay to identify treatments for viral infectious disease that targets Dengue virus type 1 NS2B-NS3 protease. Utilizing a direct enzyme activity measurement method, reading the fluorescence intensity is used to characterize the relative potency of inhibitors as IC50.).
T1 sequence (A0A0K0TQ28 whole entry): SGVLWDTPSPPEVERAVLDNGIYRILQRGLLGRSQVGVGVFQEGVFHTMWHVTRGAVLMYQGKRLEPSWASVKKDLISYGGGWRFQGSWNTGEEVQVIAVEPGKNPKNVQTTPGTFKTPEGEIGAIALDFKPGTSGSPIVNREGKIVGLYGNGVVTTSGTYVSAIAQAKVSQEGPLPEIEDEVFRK
Parameters: species or system Nauru/West Pac/1974
`N#Cc1ccc(-c2nc3c(C(=O)Nc4ccc5c(c4)CNC5)cc(F)cc3[nH]2)cc1` was tested, and the pIC50 was 5.77. For `COc1cccc(-c2nc3c(C(=O)Nc4ccc5c(c4)CNC5)cc(F)cc3[nH]2)c1`, the pIC50 was 5.27. In the case of `O=C(Nc1ccc2c(c1)CNC2)c1cc(F)cc2[nH]c(-c3cccc(F)c3)nc12`, the pIC50 was 5.57. Work on `Cc1cccc(-c2nc3c(C(=O)Nc4ccc5c(c4)CNC5)cc(F)cc3[nH]2)c1` yielded a pIC50 of 5.23. With `NCc1ccc(-c2csc3cc(C(=O)Nc4ccc5c(c4)CNC5)ccc23)cc1` the pIC50 was 4.50. `NCc1csc2cc(C(=O)Nc3ccc4c(c3)CNC4)ccc12` gave a pIC50 of 5.00. Molecule `O=C(Nc1ccc2c(c1)CNC2)c1cccc2c(C3CNC3)n[nH]c12` has a pIC50 of 4.03.
